Measured values taken from patent publication US8110399B2, “Stem cells of the islets of langerhans and their use in treating diabetes mellitus” (The General Hospital Corporation, priority 1999, dated 2012).

Legend:
nestin-positive NIPs = test: Intracellular Ca2+ concentration in single isolated NIPs; type: cell-based, human
Description: The application of GLP-1 amide to single, isolated […] elevates levels of intracellular Ca^2+ concentration ([Ca^2+]i). Cells were plated onto gridded coverslips to permit subsequent immunohistochemical staining of the same cells to test for nestin expression.

NIP cultures = test: Immunocytochemical detection of differentiation of NIPs; type: cell-based, human; details: for Idx-1 immunostaining / insulin immunostaining: NIP cultures expanded 7-10 days, then treated
Description: Nestin-positive pancreatic islet stem cells were analyzed for GLP-1R expression. Human islet tissue was obtained from the Juvenile Diabetes Research Center for Islet Transplantation, Harvard Medical School. NIPs were isolated as described previously (Zulewski, et al., 2001, Diabetes 50: 521). Briefly, islets were washed and cultured in RPMI 1640 medium containing serum, 11.1 mM glucose, antibiotics, sodium pyruvate, β-mercaptoethanol, and growth factors. Within several days, nestin-positive cells (identified immunocytochemically as described above) grew out from the islets. Later, these cells were cloned and expanded in medium containing 20 ng/ml of basic fibroblast growth factor and epidermal growth factor or 1000 units of recombinant human leukemia inhibitory factor. Incubation with GLP-1 was administered in the absence of serum and fresh peptide was added every 48 h without changing the medium.
Immunocytochemical detection of GLP-1R was performed using rabbit polyclonal antisera (Heller et al., supra) as follows. Cells cultured on Lab-Tek chamber slides (Nunc, Naperville, Ill.) or gridded coverslips (Bellco Glass, NJ) were fixed with 4% paraformaldehyde in PBS for 10 minutes at room temperature. After several rinses in PBS, cells were blocked with normal donkey serum for 30 minutes and incubated with primary antisera or pre-immune sera at 4° C. The following day, cells were rinsed with PBS and incubated with secondary antisera (donkey anti-rabbit and donkey anti-guinea pig) labeled with Cy-3 or Cy-2 for 1 hour at room temperature. After several washes, coverslips containing cells were mounted onto slides in mounting medium containing DAPI (Vector Laboratories, Burlingame, Calif.) which stains nuclei. Fluorescence images were obtained using a Zeiss epifluorescence microscope equipped with an Optronics TEC-470 CCD camera (Optronics Engineering, Goleta, Calif.) interfaced with a Powermac 7100. IP lab Spectrum software (Signal Analytics, Vienna, Va.) was used to acquire and analyze images.
NIPs were picked from islet cultures and expanded in growth medium containing bFGF plus EGF (passage 01) for 3-10 days (Zulewski et al., 2001 Diabetes 50: 521). In certain instances NIPOs that were expanded for 3-5 days were fixed and subjected to immunocytochemical detection of Nestin (Cy-3) and Insulin (Cy-2) as shown in FIG. 24A. […] Accordingly, treatment with Extendin-4 induced a 2- to 3-fold increase in insulin secretion (FIG. 25). However, in some culture wells, confluence alone was sufficient to initiate small amounts of insulin secretion.

[1] = system: partial pancreatectomy rat model of type 2 diabetes; details: daily administration for 10 days post pancreatectomy; cited from earlier work
islet mass = test: Islet mass after injection of GLP-1 into mice; type: in vivo; details: in 48 hours
diabetic mice = details: cited from earlier work

Compound: [La+3] [La^3+]
- [Ca2+]i increase mediated by GLP-1 (nestin-positive NIPs; extracellular La3+ 5 μM): inhibited

Compound: CCCCNC(=O)NS(=O)(=O)c1ccc(C)cc1 [tolbutamide]
- [Ca2+]i elevation (nestin-positive NIPs; tolbutamide 100 μM): stimulates [Ca^2+]i elevation

Compound: Extendin (9-39): peptide, a specific antagonist of GLP-1 (GLP-1R antagonist)
- increase in [Ca2+]i mediated by GLP-1 (nestin-positive NIPs; pretreatment of single isolated NIPs with antagonist): prevents the increase

Compound: exendin-4 [Extendin-4]
- Idx-1 immunostaining (NIP cultures): Idx-1 positive
- insulin immunostaining (NIP cultures): a subset of cells became insulin positive
- development of diabetes [1]: attenuated the development of diabetes

Compound: glucagon-like peptide-1 (HDEFERHAEGTFTSDVSSYLEGQAAKEFIAWLVKGRG) [GLP-1, insulinotropic hormone glucagon-like peptide (GLP)-1 produced by the intestine]
- [Ca2+]i levels (nestin-positive NIPs; basal (5.6 mM) glucose): stimulates [Ca^2+]i levels
- [Ca2+]i levels (nestin-positive NIPs; high (20 mM) glucose): ineffective
- Idx-1 immunostaining (NIP cultures): Idx-1 positive
- insulin immunostaining (NIP cultures): a subset of cells became insulin positive
- nestin expression of the cultures (NIP cultures; cultures treated with GLP-1): overall decrease in nestin expression
- increase of islet mass (islet mass): 2 fold
- blood sugar levels (diabetic mice): effectively lowers their blood sugar levels
- insulin secretion (diabetic mice): stimulates insulin secretion
